The text below walks through data of US6743809B2, “Indole Derivatives useful for the treatment of CNS disorders” (H. Lundbeck A/S, priority 2000, dated 2004).

The target in one assay is T1, D4 receptor (Homo sapiens, UniProt P21917).
T1 sequence (P21917 1-419): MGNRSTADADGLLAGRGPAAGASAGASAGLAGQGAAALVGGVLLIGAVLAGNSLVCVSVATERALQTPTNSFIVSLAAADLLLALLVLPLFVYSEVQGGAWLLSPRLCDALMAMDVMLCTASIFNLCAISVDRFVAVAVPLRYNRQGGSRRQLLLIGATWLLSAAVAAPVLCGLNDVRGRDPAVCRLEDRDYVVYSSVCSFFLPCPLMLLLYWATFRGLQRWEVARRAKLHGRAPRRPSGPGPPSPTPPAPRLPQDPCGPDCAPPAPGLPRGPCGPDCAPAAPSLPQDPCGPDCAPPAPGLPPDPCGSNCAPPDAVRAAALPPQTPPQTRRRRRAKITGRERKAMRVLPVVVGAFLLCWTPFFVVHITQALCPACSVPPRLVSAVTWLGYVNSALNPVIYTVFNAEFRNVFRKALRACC
The conditions noted are these: literature report, result in words; cited from earlier work.

For assay [1], the target named is T2, human cloned dopamine D4.2 receptors (Homo sapiens, UniProt P21917, DEL265-296).
T2 construct: expressed in transfected cells; host or cells: CHO cells
T2 sequence (P21917 with tags, fused parts or gaps DEL265-296): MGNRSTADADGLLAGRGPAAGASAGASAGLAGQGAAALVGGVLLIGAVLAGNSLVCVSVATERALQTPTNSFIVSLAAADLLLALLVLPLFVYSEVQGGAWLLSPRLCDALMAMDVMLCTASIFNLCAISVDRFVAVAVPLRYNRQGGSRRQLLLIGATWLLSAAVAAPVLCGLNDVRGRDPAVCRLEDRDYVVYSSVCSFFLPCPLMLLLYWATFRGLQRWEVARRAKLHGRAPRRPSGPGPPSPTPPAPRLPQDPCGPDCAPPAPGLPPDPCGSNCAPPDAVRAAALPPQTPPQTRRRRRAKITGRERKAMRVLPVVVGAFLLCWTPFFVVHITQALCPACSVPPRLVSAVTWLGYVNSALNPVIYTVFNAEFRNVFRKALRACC
Nature of the assay: Inhibition of the binding of [3H]YM-09151-2 to human dopamine D4 receptors. The conditions noted are these: 50 nM compound; [3H]YM-09151-2 0.06 nM; membranes of CHO-cells. The protocol:
Inhibition of the Binding of [^3H]YM-09151-2 to Human Dopamine D4 Receptors
By this method, the inhibition by drugs of the binding of [^3H]YM-09151-2 (0.06 nM) to membranes of human cloned dopamine D4.2 receptors expressed in CHO-cells is determined in vitro. The method is modified from NEN Life Science Products, Inc., technical data certificate PC2533-10/96.

Regarding `CC(C)Oc1cccnc1N(C)C1CCN(Cc2ccccc2)CC1` [Compound U-101958], the “functional activity at D4 receptor” value on D4 receptor is listed as “partial D4 receptor agonists”.

By inhibition is commonly meant the drop in the measured response relative to a control, in per cent. The low end stands for a weak effect, the high end for a strong effect. `Cc1ccc(NC(=O)Cc2ccccc2)cc1CCN1CCC(c2c[nH]c3c(Cl)cccc23)CC1` [Compound 3ae, 3-[1-(2-{5-[(2-Phenylethanoyl)amino]-2-methylphenyl}ethyl)piperidin-4-yl]-7-chloro-1H-indole] gave an inhibition at 0.05 µM in assay [1] of 89%.

Regarding “3-(1-{2-[5-(Isobutanolamino)-2-methylphenyl]ethyl}piperidin-4-yl)-5-fluoro-1H-indole [Compound 3f]”, the “% inhibition of binding at 50 nM” value in assay [1] stood at 96%.

As for `Cc1ccc(NC(=O)c2cccs2)cc1CCN1CCC(c2c[nH]c3c(Cl)cccc23)CC1` [Compound 4i, 3-[1-(2-{2-Methyl-5-[(thiophen-2-ylmethanoyl)amino]phenyl}ethyl)piperidin-4-yl]-7-chloro-1H-indole], the inhibition at 0.05 µM in assay [1] was found to be 85%.

In assay [1], `Cc1ccc(NC(=O)CCc2ccccc2)cc1CCN1CCC(c2c[nH]c3c(Cl)cccc23)CC1` [Compound 3ad, 3-[1-(2-{5-[(3-Phenylpropanoyl)amino]-2-methylphenyl}ethyl)piperidin-4-yl]-7-chloro-1H-indole] gave an inhibition at 0.05 µM of 83%.

Take `Cc1ccc(C(=O)Nc2ccc(C)c(CCN3CCC(c4c[nH]c5ccc(F)cc45)CC3)c2)cc1` [Compound 3m, 3-(1-{2-[2-Methyl-5-(4-methylbenzoylamino)phenyl]ethyl}piperidin-4-yl)-5-fluoro-1H-indole]: the inhibition at 0.05 µM in assay [1] was determined as 81%.

For the compound `Cc1ccc(NC(=O)c2ccc(F)cc2)cc1CCN1CCC(c2c[nH]c3c(Cl)cccc23)CC1` [Compound 4e, 3-(1-{2-[5-(4-Fluorobenzoylamino)-2-methylphenyl]ethyl}piperidin-4-yl)-7-chloro-1H-indole], in assay [1], at 0.05 µM the inhibition was 44%.

For `Cc1ccc(NC(=O)c2cccs2)cc1CCN1CCC(c2c[nH]c3cc(Cl)ccc23)CC1` [Compound 3p, 3-(1-{2-[2-Methyl-5-(thiophen-2-ylmethanoylamino)phenyl]ethyl}piperidin-4-yl)-6-chloro-1H-indole], the inhibition at 0.05 µM in assay [1] worked out at 92%.
